In publication PMC6274419, “Synthesis and Anticancer Activities of Glycyrrhetinic Acid Derivatives” (Molecules, 2016) one finds IC50 data, which are given here for 15 compounds.

Structures are written as SMILES. Counter-ions that a name gives are not always drawn. Like-named read-outs stand apart in the source and are kept apart here.

Common to all, as to format: cell-based, human
One assay deals with MCF-7 cells. Put plainly: MTT cytotoxicity assay, MCF-7. The following applies: read-out: IC50 MCF-7. Here is the method:
(§1) The anticancer activities of compounds 17–24, 41–56 against MCF-7, MDA-MB-231 and hTERT-RPE1 cells were determined in vitro by an MTT assay. […] The data was calculated and presented as IC50 values in Table 1.
(§2) The cytotoxicities of the compounds were evaluated by the MTT assay, which is based on the conversion of MTT to formazan crystals by mitochondrial dehydrogenases. […] The medium was incubated with 20 μL of 5 mg/mL MTT solution for 3 h in a humidified incubator containing 5% CO2. The purple coloured formazan crystals formed in the wells were dissolved in DMSO and their absorbances were measured at 570 nm with a microplate reader. Cell viability was expressed as a percentage of the value in control cultures.
For orientation: Tetrazolium dyes change colour on reduction, which living cells bring about.

For a further assay, the system named is MDA-MB-231 cells. The experiment in a line: MTT cytotoxicity assay, MDA-MB-231. Conditions: read-out: IC50 MDA-MB-231. The protocol:
The data was calculated and presented as IC50 values in Table 1.
as §2

For another assay, the system named is hTERT-RPE1 cells. The experiment in a line: MTT cytotoxicity assay, hTERT-RPE1 normal cells. The following applies: read-out: IC50 hTERT-RPE1. The protocol:
as §1, §2

The mark [1] stands for this setting: MCF7, human breast cancer cell line MCF-7, MTT method, 24 h treatment, mean ± SD.
Setting [2] is: human breast cancer cell line MDA-MB-231, MTT method, 24 h treatment, mean ± SD.
Where [3] appears, read: normal human retinal pigment epithelial cell line hTERT-RPE1, MTT method, 24 h treatment, mean ± SD.

What is called IC50 is the concentration needed to halve the response being measured. With `CCOC(=O)/C=C/c1ccc(OC(=O)[C@@]2(C)CC[C@]3(C)CC[C@]4(C)C(=CC(=O)[C@@H]5[C@@]6(C)CC[C@H](OC(=O)[C@@H](N)CCSC)C(C)(C)[C@@H]6CC[C@]54C)[C@@H]3C2)cc1` [Compound 47, trans-4-Hydroxycinnamic acid ethyl ester 3β-(l-methionine)-11-oxo-olean-12-en-30-oatehydrochloride], the half-inhibitory concentration (IC50) in the assay on MCF-7 cells (setting [1]) was determined as 2.65 ± 0.12 µM; in the assay on MDA-MB-231 cells (setting [2]) it was 2.31 ± 0.65 µM; in the assay with hTERT-RPE1 cells (setting [3]), 5.65 ± 1.02 µM.

Regarding `COC(=O)/C=C/c1cccc(OC(=O)[C@@]2(C)CC[C@]3(C)CC[C@]4(C)C(=CC(=O)[C@@H]5[C@@]6(C)CC[C@H](OC(=O)[C@@H](N)CC[Se]C)C(C)(C)[C@@H]6CC[C@]54C)[C@@H]3C2)c1` [Compound 54, trans-3-Hydroxycinnamic acid methyl ester 3β-(l-selenomethionine)-11-oxo-olean-12-en-30-oate hydro-chloride], the IC50 in the assay on MCF-7 cells (Homo sapiens, MCF7, 24 h) came to 3.48 ± 0.82 µM; with MDA-MB-231 cells (Homo sapiens, MDA-MB-231, 24 h) it was 2.46 ± 0.77 µM; with hTERT-RPE1 cells (Homo sapiens, hTERT-RPE1, 24 h) it was 4.55 ± 0.44 µM.

Regarding `CCOC(=O)/C=C/c1ccc(OC)c(OC(=O)[C@@]2(C)CC[C@]3(C)CC[C@]4(C)C(=CC(=O)[C@@H]5[C@@]6(C)CC[C@H](OC(=O)[C@@H](N)CC[Se]C)C(C)(C)[C@@H]6CC[C@]54C)[C@@H]3C2)c1` [Compound 52, Isoferulic acid ethyl ester 3β-(l-selenomethionine)-11-oxo-olean-12-en-30-oate hydrochloride], the IC50 was found to be 6.93 ± 0.63 µM in the assay with MCF-7 cells (Homo sapiens, MCF7, 24 h); 3.27 ± 0.66 µM in the assay with MDA-MB-231 cells (Homo sapiens, MDA-MB-231, 24 h); 10.1 ± 0.28 µM with hTERT-RPE1 cells (Homo sapiens, hTERT-RPE1, 24 h).

`COC(=O)/C=C/c1ccc(OC(=O)[C@@]2(C)CC[C@]3(C)CC[C@]4(C)C(=CC(=O)[C@@H]5[C@@]6(C)CC[C@H](OC(=O)[C@@H](N)CCSC)C(C)(C)[C@@H]6CC[C@]54C)[C@@H]3C2)c(OC)c1` [Compound 41, Ferulic acid methyl ester 3β-(l-methionine)-11-oxo-olean-12-en-30-oate hydrochloride]: the half-inhibitory concentration (IC50) in the assay with MCF-7 cells (setting [1]) is 6 ± 0.43 µM; with MDA-MB-231 cells (setting [2]), 3.52 ± 0.61 µM; in the assay with hTERT-RPE1 cells (setting [3]), 10.4 ± 0.8 µM.

As for `CCOC(=O)/C=C/c1cccc(OC(=O)[C@@]2(C)CC[C@]3(C)CC[C@]4(C)C(=CC(=O)[C@@H]5[C@@]6(C)CC[C@H](OC(=O)[C@@H](N)CC[Se]C)C(C)(C)[C@@H]6CC[C@]54C)[C@@H]3C2)c1` [Compound 56, trans-3-Hydroxycinnamic acid ethyl ester 3β-(l-selenomethionine)-11-oxo-olean-12-en-30-oate hydrochloride], the half-inhibitory concentration (IC50) in the assay with MCF-7 cells (Homo sapiens, MCF7, 24 h) turned out to be 2.57 ± 0.4 µM; with MDA-MB-231 cells (Homo sapiens, MDA-MB-231, 24 h), 1.53 ± 0.25 µM; in the assay with hTERT-RPE1 cells (Homo sapiens, hTERT-RPE1, 24 h) it was 3.7 ± 0.29 µM.

Consider `CCOC(=O)/C=C/c1cccc(OC(=O)[C@@]2(C)CC[C@]3(C)CC[C@]4(C)C(=CC(=O)[C@@H]5[C@@]6(C)CC[C@H](OC(=O)[C@@H](N)CCSC)C(C)(C)[C@@H]6CC[C@]54C)[C@@H]3C2)c1` [Compound 55, trans-3-Hydroxycinnamic acid ethyl ester 3β-(l-methionine)-11-oxo-olean-12-en-30-oate hydrochloride], for which the IC50 with MCF-7 cells (setting [1]) worked out at 5.79 ± 0.85 µM; in the assay on MDA-MB-231 cells (setting [2]) it was 1.92 ± 0.91 µM; with hTERT-RPE1 cells (setting [3]), 6.63 ± 0.22 µM.

Take `COC(=O)/C=C/c1ccc(OC(=O)[C@@]2(C)CC[C@]3(C)CC[C@]4(C)C(=CC(=O)[C@@H]5[C@@]6(C)CC[C@H](OC(=O)[C@@H](N)CC[Se]C)C(C)(C)[C@@H]6CC[C@]54C)[C@@H]3C2)cc1` [Compound 46, trans-4-Hydroxycinnamic acid methyl ester 3β-(l-selenomethionine)-11-oxo-olean-12-en-30-oate hydrochloride]: the half-inhibitory concentration (IC50) in the assay on MCF-7 cells (Homo sapiens, MCF7, 24 h) was 6.02 ± 0.35 µM; with MDA-MB-231 cells (Homo sapiens, MDA-MB-231, 24 h) it was 6.27 ± 0.24 µM; in the assay with hTERT-RPE1 cells (Homo sapiens, hTERT-RPE1, 24 h) it was 6.33 ± 0.19 µM.

For `CC1(C)[C@@H](O)CC[C@]2(C)[C@H]3C(=O)C=C4[C@@H]5C[C@@](C)(C(=O)O)CC[C@]5(C)CC[C@@]4(C)[C@]3(C)CC[C@@H]12` [GA, glycyrrhetinic acid], the results for the concentration for half-maximal inhibition (IC50) in the assay on MCF-7 cells (setting [1]), with MDA-MB-231 cells (setting [2]) and with hTERT-RPE1 cells (setting [3]) were 75.7 ± 1.52 µM, 84.7 ± 1.73 µM and 63.4 ± 1.07 µM, respectively.

Take `COC(=O)/C=C/c1ccc(OC(=O)[C@@]2(C)CC[C@]3(C)CC[C@]4(C)C(=CC(=O)[C@@H]5[C@@]6(C)CC[C@H](OC(=O)[C@@H](N)CCSC)C(C)(C)[C@@H]6CC[C@]54C)[C@@H]3C2)cc1` [Compound 45, trans-4-Hydroxycinnamic acid methyl ester 3β-(l-methionine)-11-oxo-olean-12-en-30-oate hydrochloride]: the IC50 in the assay with MCF-7 cells (setting [1]) came to 7.24 ± 0.3 µM; with MDA-MB-231 cells (setting [2]) it was 6.43 ± 0.84 µM; in the assay with hTERT-RPE1 cells (setting [3]), 8.48 ± 0.73 µM.

As for `COC(=O)/C=C/c1ccc(OC)c(OC(=O)[C@@]2(C)CC[C@]3(C)CC[C@]4(C)C(=CC(=O)[C@@H]5[C@@]6(C)CC[C@H](OC(=O)[C@@H](N)CC[Se]C)C(C)(C)[C@@H]6CC[C@]54C)[C@@H]3C2)c1` [Compound 50, Isoferulic acid methyl ester 3β-(l-selenomethionine)-11-oxo-olean-12-en-30-oate hydrochloride], the half-inhibitory concentration (IC50) with MCF-7 cells (Homo sapiens, MCF7, 24 h) came to 5.12 ± 0.58 µM; with MDA-MB-231 cells (Homo sapiens, MDA-MB-231, 24 h) it was 3.13 ± 0.45 µM; in the assay with hTERT-RPE1 cells (Homo sapiens, hTERT-RPE1, 24 h), 9.79 ± 0.37 µM.

For the compound `CCOC(=O)/C=C/c1ccc(OC)c(OC(=O)[C@@]2(C)CC[C@]3(C)CC[C@]4(C)C(=CC(=O)[C@@H]5[C@@]6(C)CC[C@H](OC(=O)[C@@H](N)CCSC)C(C)(C)[C@@H]6CC[C@]54C)[C@@H]3C2)c1` [Compound 51, Isoferulic acid ethyl ester 3β-(l-methionine)-11-oxo-olean-12-en-30-oate hydrochloride], the IC50 stood at 8.81 ± 0.2 µM in the assay on MCF-7 cells (setting [1]), 4.67 ± 0.74 µM in the assay on MDA-MB-231 cells (setting [2]) and 12.5 ± 0.4 µM in the assay on hTERT-RPE1 cells (setting [3]).

For `CCOC(=O)/C=C/c1ccc(OC(=O)[C@@]2(C)CC[C@]3(C)CC[C@]4(C)C(=CC(=O)[C@@H]5[C@@]6(C)CC[C@H](OC(=O)[C@@H](N)CC[Se]C)C(C)(C)[C@@H]6CC[C@]54C)[C@@H]3C2)c(OC)c1` [Compound 44, Ferulic acid ethyl ester 3β-(l-selenomethionine)-11-oxo-olean-12-en-30-oate hydrochloride], the IC50 in the assay on MCF-7 cells (Homo sapiens, MCF7, 24 h) worked out at 8.45 ± 0.32 µM; in the assay on MDA-MB-231 cells (Homo sapiens, MDA-MB-231, 24 h), 3.49 ± 0.61 µM; in the assay with hTERT-RPE1 cells (Homo sapiens, hTERT-RPE1, 24 h), 12.3 ± 0.46 µM.

As to `CCOC(=O)/C=C/c1ccc(OC(=O)[C@@]2(C)CC[C@]3(C)CC[C@]4(C)C(=CC(=O)[C@@H]5[C@@]6(C)CC[C@H](OC(=O)[C@@H](N)CCSC)C(C)(C)[C@@H]6CC[C@]54C)[C@@H]3C2)c(OC)c1` [Compound 43, Ferulic acid ethyl ester 3β-(l-methionine)-11-oxo-olean-12-en-30-oate hydrochloride], the results for the IC50 in the assay with MCF-7 cells (setting [1]), in the assay with MDA-MB-231 cells (setting [2]) and in the assay on hTERT-RPE1 cells (setting [3]) were 8.62 ± 0.23 µM, 5.36 ± 0.44 µM and 16.3 ± 0.51 µM, respectively.

For the compound `CCOC(=O)/C=C/c1ccc(OC(=O)[C@@]2(C)CC[C@]3(C)CC[C@]4(C)C(=CC(=O)[C@@H]5[C@@]6(C)CC[C@H](OC(=O)[C@@H](N)CC[Se]C)C(C)(C)[C@@H]6CC[C@]54C)[C@@H]3C2)cc1` [Compound 48, trans-4-Hydroxycinnamic acid ethyl ester 3β-(l-selenomethionine)-11-oxo-olean-12-en-30-oate hydrochloride], the IC50 stood at 2.42 ± 0.23 µM in the assay on MCF-7 cells (Homo sapiens, MCF7, 24 h); 1.86 ± 0.29 µM in the assay on MDA-MB-231 cells (Homo sapiens, MDA-MB-231, 24 h); 7.08 ± 0.73 µM in the assay on hTERT-RPE1 cells (Homo sapiens, hTERT-RPE1, 24 h).

Regarding `COc1cccc2c1C(=O)c1c(O)c3c(c(O)c1C2=O)C[C@@](O)(C(=O)CO)C[C@@H]3O[C@H]1C[C@H](N)[C@H](O)[C@H](C)O1` [ADR, doxorubicin, reference compound], the figures for the 50% inhibitory concentration (IC50) with MCF-7 cells (setting [1]) and in the assay on hTERT-RPE1 cells (setting [3]) were 0.49 ± 0.09 µM and 2.76 ± 0.11 µM, respectively.
